Measurements published in paper PMC11023993, “Piperine, quercetin, and curcumin identified as promising natural products for topical treatment of cutaneous leishmaniasis” (Parasitology Research, 2024).
Where two headings read alike, the source gives them in different places.

How the values were obtained:
[1] = test system: intracellular amastigotes of L. braziliensis; assay: In vitro leishmanicidal activity against intracellular amastigotes in infected U-937 macrophages (flow cytometry); assay type: cell-based, Leishmania braziliensis; settings: for SI (Selectivity Index = LC50/EC50): LC50 U-937 / EC50 L. braziliensis amastigotes; for EC50: Leishmania braziliensis; for Leishmanicidal activity: class by EC50 on intracellular amastigotes of L. braziliensis
Experimental: Infective L. braziliensis (MHOM/CO/88/UA301-eGFP) (Pulido et al. [2012]) were cultured in Novy-MacNeal-Nicolle (NNN) biphasic medium at 26 °C for 3 passages maximum. U-937 cells, prepared as described in the previous section, were adjusted to approximately 3 × 10^5 cells per mL of supplemented RPMI 1640 medium containing […] of PMA to induce cell adherence. One mL was dispensed into each well of a 24-well plate and platters were incubated at 37 °C in % CO2, 95% humidity atmosphere for 72 h. Then, adherent cells were infected with fluorescent promastigotes of L. braziliensis in a 15:1 parasite to cell ratio. Plates were incubated again at 34 °C and % CO2, 95% humidity atmosphere. After 24 h, non-phagocytosed parasites were washed by pipetting phosphate buffered solution (PBS) in the plate at room temperature and 500 µL of fresh complete RPMI 1640 medium was added. Then, 500 µL of each serial dilution of QUE, PIP, CUR, and amphotericin B was added to each well and plates were incubated at 34 °C with % CO2, 95% humidity atmosphere. The EC50, the median effective concentration to induce […] killing of the intracellular amastigotes in infected cells, was measured by Flow cytometry at 488 nm of excitation and 525 nm of emission. After 48 h of incubation, cells were harvested with cold dissociation buffer (1x PBS with 2% EDTA) and the harvested cells were washed with buffer (1 × PBS with 2% FBS), and results were analyzed by FlowJo 10. The EC50 was determined with a non-lineal regression using Prism GraphPad 10.
(§1) The LC50 and the EC50 were calculated by Probit analysis using GraphPad Prism 10 (San Diego, CA, USA). Both cytotoxicity and leishmanicidal activity were defined by ranges of values of LC50 and EC50 in terms of high, moderate, or low as follows: high cytotoxicity for LC50 values < 100 µM, moderate cytotoxicity for LC50 values > 100 µM but < 200 µM, and low cytotoxicity for LC50 values > 200 µM. […] In addition, the cytotoxicity in U937 macrophages was correlated with the leishmanicidal activity by calculating the Selectivity Index (SI), using the equation: SI = LC50/EC50 (Indrayanto et al. [2021]).

[2] = MTT cytotoxicity assay in uninfected U-937 macrophages; settings: human
Experimental: (§2) U-937 (CRL-1593.2™) macrophages (ATCC, Manassas, VA, USA) were cultured in RPMI-1640 medium supplemented with 10% of FBS and incubated at 37 °C in 5% CO2, 95% humidity atmosphere. U-937 cells in the exponential growth phase were recovered, and washed by centrifugation at 1800 rpm for 10 min at room temperature; the pellet was then resuspended in supplemented RPMI 1640 medium and counted in a Neubauer chamber. The number was adjusted to 1 × 10^6 cells per mL and 100 µL was dispensed into each well of a 96-well plate. Then, another 100 µL of each serial dilution of QUE, PIP, CUR, doxorubicin, and amphotericin B was added to each well by triplicate and plates were incubated at 37 °C 5% CO2, 95% humidity atmosphere for 48 h.
(§3) The MTT solution is then added to the treated cells, where the yellow MTT is reduced to purple formazan by a variety of mitochondrial and cytosolic enzymes that are operational in viable cells. After 3 h of incubation with MTT, the formazan precipitates. Consequently, the growing medium was removed, the formazan was dissolved in DMSO, and the absorbance of the solution was measured at 570 nm using a microplate reader spectrophotometer (Varioskan Flash, Thermo Fisher Scientific).
(§4) Cells exposed to the standard cytotoxic drug doxorubicin were used as an internal control for toxicity (positive control) while cells incubated in the absence of any compound or drug were used as a control for viability (negative control). A solution of 0.5% DMSO was used as a blank solution. Non-specific absorbance was corrected by subtracting absorbance (OD) of the blank. Determinations were done by triplicate in at least two independent experiments.
(§5) The OD of viable cells that remained after treatment was compared to the OD of control cells that were not exposed to the drug. The LC50 (median lethal concentration) values and their statistical errors were calculated based on triplicates of the measurement in the independent assays. The LC50 values were determined by non-linear regression using Prism GraphPad 10.
as §1

[3] = test system: L. braziliensis-induced cutaneous leishmaniasis ulcers; assay: Histopathological analysis (H-E) of healed ulcers from treated hamsters; assay type: in vivo, golden hamsters (Mesocricetus auratus); set-up: key to Dermis: oedema (grade) / Dermis: granulomatous inflammation (grade) / Epidermis: orthokeratotic hyperkeratosis (grade) / Epidermis: spongiosis (grade) / Epidermis: ulcer (grade) / Dermis: neovascularization (grade) / Dermis: fibroplasia (grade) / Dermis: leukocytic infiltrate (grade): 0, absent; 1, mild; 2, mild to moderate; 3, moderate; 4, moderate to severe; 5, severe; settings: healed ulcer after topical treatment
Experimental: The changes were analyzed under a standard optical microscope.

[4] = test system: L. braziliensis
Description: Golden hamsters (Mesocricetus auratus) were purchased from Charles River Laboratories (Wilmington MA, USA) and bred under specific pathogen-free conditions at the animal facility unit of the Universidad de Antioquia in Medellín, Colombia. Six- to eight-week-old, male, and female hamsters were used for the experiments. Animal experimentation protocols including handling of the animals, sample collection, and euthanasia were done in compliance of the Center for Diseases Control and Prevention guidelines for Safe Work Practices in Human and Animal Medical Diagnostic Laboratories and ARRIVE guidelines (Percie du Sert et al. [2020b]; Khairani et al. [2022]) and approved by the Institutional Ethical Committee for animal experimentation (Act No. 152 of June 01, 2023) (Percie du Sert et al. [2020a]; Khairani et al. [2022]).
Hamsters were anesthetized with ketamine (80 mg/kg, i.p.) and xylazine (15 mg/Kg) before infection and then, ∼1 × 10^8 promastigotes in stationary phase (6 days-old growth) were inoculated into the dorsum dermis (Robledo et al. [2012]). When hamsters developed ulcers larger than 12.5 mm^2, hamsters were randomly distributed into 4 groups (n = 6, each): (1) group treated with QUE (1 mg/day), (2) group treated with PIP (2.5 mg/day), (3) group treated with CUR (1.5 mg/day), (4) group treated with meglumine antimoniate (treatment control group, 200 µg/mL, intralesional). No vehicle control group was included in the present study because castor oil additive is a nonionic surfactant commonly used as an excipient in pharmaceutical formulations, particularly in solubilizing poorly water-soluble drugs. It is widely used as an ingredient in cosmetics for its conditioning properties, based on occlusive action, reducing water loss, and having a nourishing effect on the skin, hair, and nails (Marwat et al. [2017]; Khairani et al. [2022]).
Hamsters were treated daily with 40 µL of the corresponding formulation for 2 weeks, applying it directly over the lesion, while hamsters treated with meglumine antimoniate received treatment three times per week for 4 weeks. Lesion area was measured every week for 90 days with an electronic digital caliper. The body weight gain or loss was supervised every 2 weeks during the study. At the end of the study, hamsters were euthanized with an i.p. injection of ketamine (600 mg/kg) and xylazine (30 mg/kg). The experiments were carried out under normal laboratory lighting conditions. After necropsy, biopsies from healed and unhealed ulcers were removed and fixed in 10% buffered formalin, processed, and stained with hematoxylin–eosin (H-E) stain for histopathology analysis. The changes were analyzed under a standard optical microscope.

[5] = test system: macrophages; set-up: method as in Ferreira et al. [2011]; settings: ref Ferreira et al. [2011]; cited from earlier work
[6] = test system: U-937 cells; assay: MTT cytotoxicity assay in uninfected U-937 macrophages; settings: class by LC50 in U-937 macrophages
Experimental: as §2, §3, §4, §5, §1

[7] = test system: L. amazonensis amastigotes; set-up: method as in Ferreira et al. [2011]; settings: ref Ferreira et al. [2011], read-out: EC50 for the amastigote stage; cited from earlier work
[8] = intracellular amastigotes of L. braziliensis in U-937 macrophages, 48 h, read-out: EC50 (Median Effective Concentration)
[9] = topical in castor oil daily for 15 days, QUE 1 mg/day, CUR 1.5 mg/day, PIP 2.5 mg/day, n = 6, followed 90 days
[10] = intralesional 200 µg/mL three times per week for 4 weeks, n = 6
[11] = intralesional 200 µg/mL, individual hamster

Compound	SI (Selectivity Index = LC50/EC50) [1]	EC50 [1, 8]	Leishmanicidal activity [1]	CC50 at 48 h [2]	Dermis: fibroplasia (grade) [3]	Dermis: granulomatous inflammation (grade) [3]	Dermis: leukocytic infiltrate (grade) [3]	Dermis: neovascularization (grade) [3]	Dermis: oedema (grade) [3]	Epidermis: orthokeratotic hyperkeratosis (grade) [3]	Epidermis: spongiosis (grade) [3]	Epidermis: ulcer (grade) [3]	therapeutic response (hamsters cured) [4, 9]	other results
C[C@@H]1[C@H](O)[C@@H](C)/C=C/C=C/C=C/C=C/C=C/C=C/C=C/[C@H](O[C@@H]2O[C@H](C)[C@@H](O)[C@H](N)[C@@H]2O)C[C@@H]2O[C@](O)(C[C@@H](O)C[C@@H](O)[C@H](O)CC[C@@H](O)C[C@@H](O)CC(=O)O[C@H]1C)C[C@H](O)[C@H]2C(=O)O [AMB, Amphotericin B, reference compound]	172.7	0.32 ± 0.01 µM	High (high activity corresponds to EC50 values < 50 µM)	56.1 ± 5.8 µM	–	–	–	–	–	–	–	–	–	–
COc1cc(/C=C/C(=O)CC(=O)/C=C/c2ccc(O)c(OC)c2)ccc1O [Curcumin, curcumin]	> 17.4	30.9 ± 0.3 µM	High (high activity corresponds to EC50 values < 50 µM)	> 543 µM	2	0	2	4	1	2	1	0	83%	SI (Selectivity Index = LC50/EC50) ([1]; listed as CUR): exceeds 10; EC50 ([1]; U-937, read-out: in vitro antileishmanial activity (EC50 in mass units)): 11.4 ± 0.1 µg/mL; number of hamsters cured ([4]; topical 1.5 mg/day for 15 days, n = 6): 5 hamsters; treatment failures ([4]; topical daily for 15 days, n = 6): one hamster failed treatment
COc1cccc2c1C(=O)c1c(O)c3c(c(O)c1C2=O)C[C@@](O)(C(=O)CO)C[C@@H]3O[C@H]1C[C@H](N)[C@H](O)[C@H](C)O1 [DOXO, Doxorubicin, reference compound]	–	–	–	1.47 ± 0.06 µM	–	–	–	–	–	–	–	–	–	–
O=C(/C=C/C=C/c1ccc2c(c1)OCO2)N1CCCCC1 [Piperine, piperine]	> 80	8.76 ± 1.4 µM	High (high activity corresponds to EC50 values < 50 µM)	> 701 µM	2	0	2	2	1	2	2	0	67%	toxicity towards macrophages [5]: non-toxicity; EC50 ([1]; U-937, amastigote stage of L. braziliensis, read-out: in vitro antileishmanial activity (EC50 in mass units)): 2.5 ± 0.4 µg/mL; EC50 ([1]; U-937, read-out: effective concentration (in vitro leishmanicidal activity)): 8 µM; Cytotoxicity [6]: Low (low cytotoxicity for LC50 values > 200 µM); EC50 [7]: 28 µM
Castor oil	–	–	–	–	–	–	–	–	–	–	–	–	–	resolution of CL lesions ([4]; hamster, in vivo): has not shown resolution of the lesions
meglumine antimoniate [reference compound]	–	–	–	–	–	–	–	–	–	–	–	–	–	number of hamsters cured [4, 10]: 4 hamsters; therapeutic response (hamsters cured) [4, 10]: 67%; increase of lesion in uncured hamster [4, 11]: 80%; reduction in the lesion size in uncured hamster [4, 11]: 14%
